Measured values: patent US12655116B2, “Substituted isophthalic acid diamides” (Bayer Aktiengesellschaft, priority 2020, dated 2026)

Columns and labels:
SETVI [1] = assay: Post-emergence herbicidal action against SETVI; type: in vivo, Setaria viridis; details: dosage 20 g/ha
Outline: (§1)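 Percent herbicidal action is rated by eye about 3 weeks after treatment against untreated controls, where 100% means dead plants and 0% means like controls. Plants in sandy loam are sprayed on green parts at the one-leaf stage with aqueous WP or EC preparations at 600 to 800 l/ha plus 0.2% wetting agent.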

PHBPU [2] = assay: Pre-emergence herbicidal action against PHBPU; type: in vivo, Pharbitis purpurea; details: dosage 80 g/ha
Outline: (§2)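 Seeds sown in sandy loam, soil-covered; compound sprayed on soil surface pre-emergence. Application: WP/EC, 600–800 l/ha, 0.2% wetting agent. Readout: visual % damage at 3 weeks.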

PHBPU [3] = assay: Post-emergence herbicidal action against PHBPU; type: in vivo, Pharbitis purpurea
Outline: as §1

ECHCG [4] = assay: Pre-emergence herbicidal action against ECHCG; type: in vivo, Echinochloa crus-galli; details: Echinochloa crus-galli, 504 h, 80 g/ha
Outline: as §2

AVEFA [5] = assay: Pre-emergence herbicidal action against AVEFA; type: in vivo, Avena fatua; details: 80 g/ha, pre-emergence
Outline: as §2

ALOMY = assay: Pre-emergence herbicidal action against ALOMY; type: in vivo, Alopecurus myosuroides; details: 80 g/ha, pre-emergence, scored visually after 3 weeks vs untreated controls (100% = plants have died, 0% = like control plants)
Outline: as §2

VIOTR [6] = assay: Pre-emergence herbicidal action against VIOTR; type: in vivo, Viola tricolor
Outline: as §2

VIOTR [7] = assay: Post-emergence herbicidal action against VIOTR; type: in vivo, Viola tricolor
Outline: as §1

MATIN [8] = assay: Post-emergence herbicidal action against MATIN; type: in vivo, Matricaria inodora
Outline: as §1

DIGSA [9] = assay: Pre-emergence herbicidal action against DIGSA; type: in vivo, Digitaria sanguinalis
Outline: as §2

VERPE [10] = assay: Post-emergence herbicidal action against VERPE; type: in vivo, Veronica persica; details: Veronica persica, 504 h
Outline: as §1

ECHCG [11] = assay: Post-emergence herbicidal action against ECHCG; type: in vivo, Echinochloa crus-galli; details: Echinochloa crus-galli, 504 h, dosage 20 g/ha
Outline: as §1

ABUTH [12] = assay: Post-emergence herbicidal action against ABUTH; type: in vivo, Abutilon theophrasti; details: visual assessment about 3 weeks after treatment vs untreated controls
Outline: as §1

ABUTH [13] = assay: Pre-emergence herbicidal action against ABUTH; type: in vivo, Abutilon theophrasti
Outline: as §2

STEME [14] = assay: Pre-emergence herbicidal action against STEME; type: in vivo, Stellaria media
Outline: as §2

DIGSA [15] = assay: Post-emergence herbicidal action against DIGSA; type: in vivo, Digitaria sanguinalis
Outline: as §1

STEME [16] = assay: Post-emergence herbicidal action against STEME; type: in vivo, Stellaria media
Experimental: Seeds of monocotyledonous and dicotyledonous weed and crop plants are laid out in sandy loam soil in wood-fiber pots, covered with soil and cultivated in a greenhouse under good growth conditions. 2 to 3 weeks after sowing, the test plants are treated at the one-leaf stage. The compounds of the invention, formulated in the form of wettable powders (WP) or as emulsion concentrates (EC), are then sprayed onto the green parts of the plants in the form of an aqueous suspension or emulsion at a water application rate equivalent to 600 to 800 l/ha, with addition of 0.2% wetting agent. After the test plants have been left to stand in the greenhouse under optimal growth conditions for about 3 weeks, the action of the preparations is assessed visually in comparison to untreated controls (herbicidal action in percent (%): 100% activity=the plants have died, 0% activity=like control plants). […] The tables below illustrate, in an illustrative manner, the post-emergence herbicidal action of the compounds of the invention, the herbicidal activity being stated in percent.

AVEFA [17] = assay: Post-emergence herbicidal action against AVEFA; type: in vivo, Avena fatua; details: 20 g/ha, visual assessment about 3 weeks after treatment, 100% = plants have died, 0% = like control plants
Outline: as §1

MATIN [18] = assay: Pre-emergence herbicidal action against MATIN; type: in vivo, Matricaria inodora
Outline: as §2

SETVI [19] = assay: Pre-emergence herbicidal action against SETVI; type: in vivo, Setaria viridis; details: Setaria viridis, 504 h, dosage 80 g/ha
Outline: as §2

AMARE [20] = assay: Post-emergence herbicidal action against AMARE; type: in vivo, Amaranthus retroflexus; details: Amaranthus retroflexus, 504 h, 20 g/ha, visual assessment about 3 weeks after treatment, 100% = plants have died, 0% = like control plants
Outline: as §1

AMARE [21] = assay: Pre-emergence herbicidal action against AMARE; type: in vivo, Amaranthus retroflexus
Outline: as §2

VERPE [22] = assay: Pre-emergence herbicidal action against VERPE; type: in vivo, Veronica persica; details: dosage 80 g/ha
Outline: as §2

[23] = Tripleurospermum inodorum, 504 h, dosage 20 g/ha
[24] = 80 g/ha, scored visually after 3 weeks vs untreated controls (100% = plants have died, 0% = like control plants)

CNC(=O)c1c(C(F)F)ccc(C(=O)Nc2nnnn2C)c1C [Example 1-44]
80%: pest or weed control at 80 g/ha (PHBPU [2]; Ipomoea purpurea, 504 h) | pest or weed control at 20 g/ha (PHBPU [3]; Ipomoea purpurea, 504 h, dosage 20 g/ha) | pest or weed control at 20 g/ha (VIOTR [7]; Viola tricolor, 504 h, 20 g/ha) | pest or weed control at 5 g/ha (MATIN [8]; Tripleurospermum inodorum, 504 h, dosage 5 g/ha) | pest or weed control at 5 g/ha (VERPE [10]; 5 g/ha) | pest or weed control at 20 g/ha (ECHCG [11]) | pest or weed control at 5 g/ha (DIGSA [15]; Digitaria sanguinalis, 504 h, 5 g/ha) | pest or weed control at 20 g/ha (STEME [16]; Stellaria media, 504 h, 20 g/ha) | pest or weed control at 5 g/ha (STEME [16]; Stellaria media, 504 h, dosage 5 g/ha) | pest or weed control at 20 g/ha (AVEFA [17]; Avena fatua, 504 h)
90%: pest or weed control at 20 g/ha (SETVI [1]; Setaria viridis, 504 h) | pest or weed control at 80 g/ha (ECHCG [4]) | pest or weed control at 80 g/ha (AVEFA [5]; Avena fatua, 504 h) | pest or weed control at 80 g/ha (ALOMY; Alopecurus myosuroides, 504 h) | pest or weed control at 80 g/ha (VIOTR [6]; Viola tricolor, 504 h, dosage 80 g/ha) | pest or weed control at 20 g/ha (MATIN [8]; [23]) | pest or weed control at 20 g/ha (DIGSA [9]; Digitaria sanguinalis, 504 h, dosage 20 g/ha) | pest or weed control at 5 g/ha (ABUTH [12]; Abutilon theophrasti, 504 h, dosage 5 g/ha) | pest or weed control at 20 g/ha (STEME [14]; Stellaria media, 504 h, dosage 20 g/ha) | pest or weed control at 80 g/ha (STEME [14]; Stellaria media, 504 h, dosage 80 g/ha) | pest or weed control at 20 g/ha (DIGSA [15]; Digitaria sanguinalis, 504 h, 20 g/ha) | pest or weed control at 20 g/ha (MATIN [18]; [23]) | pest or weed control at 80 g/ha (MATIN [18]; Tripleurospermum inodorum, 504 h, dosage 80 g/ha)
100%: pest or weed control at 80 g/ha (DIGSA [9]; Digitaria sanguinalis, 504 h, dosage 80 g/ha) | pest or weed control at 20 g/ha (VERPE [10]; 20 g/ha) | pest or weed control at 20 g/ha (ABUTH [12]; Abutilon theophrasti, 504 h, dosage 20 g/ha) | pest or weed control at 80 g/ha (ABUTH [13]; Abutilon theophrasti, 504 h, 80 g/ha, scored visually after 3 weeks vs untreated controls (100% = plants have died, 0% = like control plants)) | pest or weed control at 20 g/ha (ABUTH [13]; Abutilon theophrasti, 504 h, dosage 20 g/ha, scored visually after 3 weeks vs untreated controls, 100% = plants have died, 0% = like control plants, read-out: Pre-emergence action against ABUTH (herbicidal activity in percent)) | pest or weed control at 80 g/ha (SETVI [19]) | pest or weed control at 20 g/ha (AMARE [20]) | pest or weed control at 20 g/ha (AMARE [21]; Amaranthus retroflexus, 504 h, 20 g/ha, scored visually after 3 weeks vs untreated controls, 100% = plants have died, 0% = like control plants) | pest or weed control at 80 g/ha (AMARE [21]; Amaranthus retroflexus, 504 h, 80 g/ha, scored visually after 3 weeks vs untreated controls, 100% = plants have died, 0% = like control plants)

CCCn1nnnc1NC(=O)c1ccc(C(F)(F)F)c(C(=O)NC2CC2)c1C [Example 3-27]
100%: Post-emergence action against PHBPU in % (PHBPU [3]; dosage 20 g/ha) | Pre-emergence action against VIOTR in % (VIOTR [6]; dosage 80 g/ha) | Post-emergence action against VIOTR in % (VIOTR [7]; 20 g/ha) | Post-emergence action against MATIN in % (MATIN [8]; dosage 20 g/ha) | Pre-emergence action against DIGSA in % (DIGSA [9]; dosage 80 g/ha) | Post-emergence action against ABUTH in % (ABUTH [12]; dosage 20 g/ha) | Pre-emergence action against ABUTH (herbicidal activity) (ABUTH [13]; [24]) | Pre-emergence action against ABUTH (herbicidal activity in percent) (ABUTH [13]; dosage 20 g/ha, scored visually after 3 weeks vs untreated controls, 100% = plants have died, 0% = like control plants) | Pre-emergence action against STEME in % (STEME [14]; dosage 20 g/ha) | Pre-emergence action against STEME in % (STEME [14]; dosage 80 g/ha) | Post-emergence action against DIGSA (DIGSA [15]; 20 g/ha) | Pre-emergence action against MATIN in % (MATIN [18]; dosage 20 g/ha) | Pre-emergence action against MATIN in % (MATIN [18]; dosage 80 g/ha) | Pre-emergence action against AMARE in % (AMARE [21]; 20 g/ha, scored visually after 3 weeks vs untreated controls, 100% = plants have died, 0% = like control plants) | Pre-emergence action against AMARE in % (AMARE [21]; [24])
80%: Post-emergence action against VIOTR in % (VIOTR [7]; 5 g/ha) | Post-emergence action against STEME in % (STEME [16]; 20 g/ha)
90%: Post-emergence action against SETVI in % (SETVI [1]) | Pre-emergence action against PHBPU in % (PHBPU [2]) | Post-emergence action against PHBPU in % (PHBPU [3]; dosage 5 g/ha) | Pre-emergence action against AVEFA in % (AVEFA [5]) | Pre-emergence action against ALOMY (herbicidal activity) (ALOMY) | Pre-emergence action against VIOTR in % (VIOTR [6]; dosage 20 g/ha) | Pre-emergence action against VERPE in % (VERPE [22]) | Post-emergence action against MATIN in % (MATIN [8]; dosage 5 g/ha) | Post-emergence action at 20 g/ha against AVEFA in % (AVEFA [17])
